Data as given in US20130324530A1 (Novartis AG, priority 2010, published 2013).

Biological target: Cdk9/cyclinT1 (Homo sapiens, UniProt P50750)
Test: Cdk9/CyclinT1 IMAP assay

Cdk9/cyclinT1, sequence (P50750 whole entry): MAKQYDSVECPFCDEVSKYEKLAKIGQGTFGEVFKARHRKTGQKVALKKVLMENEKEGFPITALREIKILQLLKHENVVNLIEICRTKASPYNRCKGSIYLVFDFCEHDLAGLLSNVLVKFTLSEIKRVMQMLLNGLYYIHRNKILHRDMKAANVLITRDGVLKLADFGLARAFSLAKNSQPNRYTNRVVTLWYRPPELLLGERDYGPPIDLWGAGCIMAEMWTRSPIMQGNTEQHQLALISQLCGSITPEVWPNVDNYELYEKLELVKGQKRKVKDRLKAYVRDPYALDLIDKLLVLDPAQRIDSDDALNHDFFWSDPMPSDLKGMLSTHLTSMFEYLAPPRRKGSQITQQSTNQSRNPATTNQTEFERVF
Cdk9/cyclinT1, sequence (O60563 whole entry partner): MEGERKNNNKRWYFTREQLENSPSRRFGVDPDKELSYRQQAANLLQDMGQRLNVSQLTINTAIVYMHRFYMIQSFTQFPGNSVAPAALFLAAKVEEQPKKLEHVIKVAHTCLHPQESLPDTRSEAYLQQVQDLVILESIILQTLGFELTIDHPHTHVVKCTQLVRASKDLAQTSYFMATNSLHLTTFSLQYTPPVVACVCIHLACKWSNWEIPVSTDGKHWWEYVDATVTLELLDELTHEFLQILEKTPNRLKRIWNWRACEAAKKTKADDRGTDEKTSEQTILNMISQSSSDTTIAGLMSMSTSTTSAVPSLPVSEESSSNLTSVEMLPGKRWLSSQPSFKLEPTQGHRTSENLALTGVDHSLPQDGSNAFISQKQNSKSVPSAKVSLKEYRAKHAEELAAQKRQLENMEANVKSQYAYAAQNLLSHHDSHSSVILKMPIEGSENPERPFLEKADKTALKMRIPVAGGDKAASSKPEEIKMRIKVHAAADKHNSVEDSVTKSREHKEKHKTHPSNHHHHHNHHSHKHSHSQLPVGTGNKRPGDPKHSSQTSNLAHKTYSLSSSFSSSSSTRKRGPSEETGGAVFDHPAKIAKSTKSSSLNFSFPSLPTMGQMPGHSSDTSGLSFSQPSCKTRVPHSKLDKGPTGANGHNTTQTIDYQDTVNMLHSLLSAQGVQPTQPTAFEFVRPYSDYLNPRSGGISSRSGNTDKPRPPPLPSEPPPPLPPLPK

Row | Structure (SMILES) | IC50 [nM]
1 | CC(C)(CN)CNc1cc(-c2cncc(NCc3cccc(F)c3)c2)c(Cl)cn1 [Compound 12] | 32
2 | CN(C)CC(C)(C)CNc1cc(-c2cncc(NCc3cccc(F)c3)c2)c(Cl)cn1 [Compound 13] | 130
3 | N[C@H]1CC[C@@H](Nc2cc(-c3cncc(NCc4cccc(F)c4)c3)c(Cl)cn2)CC1 [Compound 21] | 11
4 | N[C@H]1CC[C@H](Nc2cc(-c3cncc(NCc4cccc(F)c4)c3)c(Cl)cn2)CC1 [Compound 24, N2′-(trans-4-aminocyclohexyl)-5′-chloro-N5-(3-fluorobenzyl)-3,4′-bipyridine-2′,5-diamine] | < 8
5 | OCCNc1cc(-c2cncc(NCc3cccc(F)c3)c2)c(Cl)cn1 [Compound 30] | < 8
6 | CN(C)[C@H]1CC[C@H](Nc2cc(-c3cncc(NCc4cccc(F)c4)c3)c(Cl)cn2)CC1 [Compound 31, 5′-chloro-N2′-(trans-4-(dimethylamino)cyclohexyl)-N5-(3-fluorobenzyl)-3,4′-bipyridine-2′,5-diamine] | < 8
7 | CN(Cc1cccc(F)c1)c1cncc(-c2cc(N[C@H]3CC[C@H](N)CC3)ncc2Cl)c1 [Compound 32] | 16
8 | N[C@H]1CC[C@H](Nc2cc(-c3cncc(NCc4ccc(F)c(F)c4)c3)c(Cl)cn2)CC1 [Compound 35] | < 8
9 | OCCNc1cc(-c2cnc(N3CCOCC3)c(NCc3cccc(F)c3)c2)c(Cl)cn1 [Compound 37] | 6920
10 | CN(C)CCCCNc1cc(-c2cncc(NCc3cccc(F)c3)c2)c(Cl)cn1 [Compound 38] | 21
11 | NC[C@H]1CC[C@H](Nc2cc(-c3cncc(NCc4cccc(F)c4)c3)c(Cl)cn2)CC1 [Compound 39, N2′-(trans-4-(aminomethyl)cyclohexyl)-5′-chloro-N5-(3-fluorobenzyl)-3,4′-bipyridine-2′,5-diamine] | < 8
12 | OCCCNc1cc(-c2cncc(NCc3cccc(F)c3)c2)c(Cl)cn1 [Compound 40] | < 8

Results, then the compound that gave them:

Row | IC50 [nM] | Structure (SMILES)
13 | 8 | COc1cccc(CNc2cncc(-c3cc(N[C@H]4CC[C@H](N)CC4)ncc3Cl)c2)c1 [Compound 15]
14 | 25 | O[C@H]1CC[C@@H](Nc2cc(-c3cc(NCC4CCOCC4)cnc3Cl)c(Cl)cn2)CC1 [Compound 17]
15 | 9 | N[C@H]1CC[C@H](Nc2cc(-c3cncc(NCc4cccnc4)c3)c(Cl)cn2)CC1 [Compound 22]
16 | 10 | N[C@H]1CC[C@H](Nc2cc(-c3cncc(NCC4CCCCC4)c3)c(Cl)cn2)CC1 [Compound 23]
17 | < 8 | Clc1cnc(N[C@H]2CC[C@H](NC[C@H]3CCCO3)CC2)cc1-c1cc(NCC2CCOCC2)cnc1Cl [Compound 25, 2,5′-dichloro-N5-((tetrahydro-2H-pyran-4-yl)methyl)-N2′-(trans-4-(((R)-tetrahydrofuran-2-yl)methylamino)cyclohexyl)-3,4′-bipyridine-2′,5-diamine]
18 | 1960 | N[C@H]1CC[C@H](Nc2cc(-c3cnc(N4CCOCC4)c(NCC4CCOCC4)c3)c(Cl)cn2)CC1 [Compound 26, N2′-(trans-4-aminocyclohexyl)-5′-chloro-6-morpholino-N5-((tetrahydro-2H-pyran-4-yl)methyl)-3,4′-bipyridine-2′,5-diamine]
19 | 57 | Clc1cnc(NC2CC2)cc1-c1cncc(NCC2CCOCC2)c1 [Compound 27]
20 | 1970 | CN1CCC(CNc2cc(-c3cncc(NCC4CCOCC4)c3)c(Cl)cn2)CC1 [Compound 28]
21 | 16 | N[C@H]1CC[C@H](Nc2cc(-c3cncc(NCC4CCCOC4)c3)c(Cl)cn2)CC1 (stereo partly drawn) [Compound 29]
22 | < 8 | N[C@H]1CC[C@H](Nc2cc(-c3cncc(NCc4ccc(F)cc4)c3)c(Cl)cn2)CC1 [Compound 33]
23 | < 8 | Cc1cccc(CNc2cncc(-c3cc(N[C@H]4CC[C@H](N)CC4)ncc3Cl)c2)c1 [Compound 34]
24 | 32 | CC(=O)N1CCC(CNc2cncc(-c3cc(N[C@H]4CC[C@H](N)CC4)ncc3Cl)c2)CC1 [Compound 36, 1-(4-((2′-(trans-4-aminocyclohexylamino)-5′-chloro-3,4′-bipyridin-5-ylamino)methyl)piperidin-1-yl)ethanone]
